We go through 42 compounds from ChEMBL document CHEMBL4483862, “Open-source discovery of chemical leads for next-generation chemoprotective antimalarials” (2018).

Structures are written as SMILES. Bounds are passed on as bounds.

The subject of this test is Plasmodium berghei. Kind of test: Luciferase/luciferin-expressing antifolate-resistant parasites were used to infect a culture of HepG2 cells that were pre-incubated with compounds. Infected hepatocytes emit light due to the luciferase reaction. Assay results are presented as the percent inhibition of light emission compared to control. […]. The test is classed as functional. Conditions: sporozoite; for IC90: read-out: LUCIFERASE INFECTION ASSAY - IC90.

Setting [1] is: read-out: LUCIFERASE INFECTION ASSAY - IC50.

Regarding `Cn1c(Sc2ncnc3sccc23)nc2ccccc21`, the IC90 (usually the concentration needed for an effect of 90%) was 5.38 µM. For the same compound, the IC50 (in general, the midpoint of a concentration-inhibition curve) (PBLUC_HILL_SLOPE 9.4, PBLUC_R_SQUARED 0.756, read-out: LUCIFERASE INFECTION ASSAY - IC50) stood at 4.26 µM.
With `O=C(C1=NNCC1c1ccccc1)c1cc2ccccc2c2ccccc12` (stereo not drawn), the IC90 is over 9.42 µM. Besides, the IC50 (HEPG2TOX_HILL_SLOPE 2.61, HEPG2TOX_R_SQUARED 0.965, PBLUC_HILL_SLOPE 1.24, PBLUC_R_SQUARED 0.535, read-out: LUCIFERASE INFECTION ASSAY - IC50) was 3.17 µM.
Consider `FC(F)(F)c1cccc(NC(S)=Nc2ccc(Cl)c(Cl)c2)c1`, for which the IC90 was over 9.04 µM. Further, the concentration for half-maximal inhibition (IC50) under setting [1] was over 9.04 µM.
Regarding `CN(C)C1(CNC(=O)c2ccc(Cl)c(S(=O)(=O)N(C)c3ccc(Cl)cc3)c2)CCCCC1`, the IC90 is over 10 µM. The IC50 (PBLUC_HILL_SLOPE 3.05, PBLUC_R_SQUARED 0.312, read-out: LUCIFERASE INFECTION ASSAY - IC50) is 8.97 µM.
For the compound `O=C1NCCN1CCNc1nn2c(-c3cccc(OC(F)(F)F)c3)cnc2s1`, the IC90 is over 8 µM. The IC50 under setting [1] was over 8 µM.
Take `CC(Sc1nnc(-c2ccc(C(C)(C)C)cc2)o1)C(=O)NCc1ccccc1Cl` (stereo not drawn): the concentration for an effect of 90% (IC90) was over 10 µM. Further, where the note is “PBLUC_HILL_SLOPE 1.93, PBLUC_R_SQUARED 0.876, read-out: LUCIFERASE INFECTION ASSAY - IC50”, the IC50 was 4.14 µM.
As to `CN1CCN(c2ccc(-c3cn4c(-c5ccc(O)cc5)cnc4cn3)cc2)CC1`, the IC90 is over 8.56 µM. For the same compound, the IC50 (FFLUC_HILL_SLOPE 7.73, FFLUC_R_SQUARED 0.293, read-out: LUCIFERASE INFECTION ASSAY - IC50) is over 8.56 µM.
Take `CCc1cccc(CC)c1NC(=O)COC(=O)c1[nH]c(C)c(C(C)=O)c1C`: the IC90 is over 10 µM. In addition, under setting [1], the IC50 is over 10 µM.
Regarding `C=C(C)C1CC=C(C)/C(=N\NC(=O)C(=O)N/N=C2/CC(C(=C)C)CC=C2C)C1` (stereo not drawn), the IC90 was over 10 µM. The IC50 under setting [1] is over 10 µM.
For `Cc1cc(C(=O)COC(=O)c2[nH]nc3ccccc23)c(C)n1CC1CCCO1` (stereo not drawn), the IC90 amounted to 0.491 µM. For the same compound, the IC50 under setting [1] amounted to 0.417 µM.
As to `Cc1ccc(-n2ncc(C(=O)OCc3nc(N)nc(N(C)C)n3)c2C(C)C)cc1`, the IC90 is over 10 µM. Further, for the setting “PBLUC_HILL_SLOPE 2.99, PBLUC_R_SQUARED 0.678, read-out: LUCIFERASE INFECTION ASSAY - IC50”, the IC50 was determined as 6.36 µM.
For the compound `CCOc1ccc(/C=N/NC(=O)c2cc3c(s2)CCCC3)c(O)c1`, the IC90 is over 10 µM. Also, the IC50 (HEPG2TOX_HILL_SLOPE 3.02, HEPG2TOX_R_SQUARED 0.79, PBLUC_HILL_SLOPE 4.8, PBLUC_R_SQUARED 0.349, read-out: LUCIFERASE INFECTION ASSAY - IC50) was determined as 6.97 µM.
As for `CCN(CC)S(=O)(=O)c1cccc(C(=O)N/N=C(\C)c2cc(Cl)ccc2Cl)c1`, the IC90 was over 10 µM. The IC50 (PBLUC_HILL_SLOPE 2.08, PBLUC_R_SQUARED 0.0166, read-out: LUCIFERASE INFECTION ASSAY - IC50) is 7.74 µM.
For the compound `Cc1c(C(=O)NC2CC2)sc(=O)n1Cc1ccc(-c2ccccc2)cc1`, the IC90 came out at 8.88 µM. In addition, the IC50 under setting [1] turned out to be 1.9 µM.
For `O=C1OC(CC(=O)c2csc3ccccc23)c2ccccc21` (stereo not drawn), the IC90 came to 8.63 µM. In addition, the IC50 under setting [1] came to 6.16 µM.
As to `CC1(C)CC(=O)c2cnc(SCC(=O)Nc3ccc(F)cc3F)nc2C1`, the IC90 is over 8.74 µM. The IC50 under setting [1] is over 8.74 µM.
For `CC1c2ccsc2CCN1C(=S)NC(=O)c1cccs1` (stereo not drawn), the IC90 is over 10.2 µM. In addition, the IC50 (FFLUC_HILL_SLOPE 16.3, FFLUC_R_SQUARED 0.288, HEPG2TOX_HILL_SLOPE 6.88, HEPG2TOX_R_SQUARED 0.689, PBLUC_HILL_SLOPE 3.81, PBLUC_R_SQUARED 0.3, read-out: LUCIFERASE INFECTION ASSAY - IC50) turned out to be 6.21 µM.
On to `CCn1c(-c2ccccc2)c(C(=O)COc2ccc(F)cc2Br)c2ccccc21`, for which the IC90 was over 10 µM. Also, the IC50 (FFLUC_HILL_SLOPE 1400, FFLUC_R_SQUARED 0.245, read-out: LUCIFERASE INFECTION ASSAY - IC50) is over 10 µM.
For `CN(C)c1ccccc1-c1cn2c(-c3ccc4c(ccn4C)c3)cnc2cn1`, the IC90 came to 1.24 µM. Moreover, the IC50 (FFLUC_HILL_SLOPE 0.352, FFLUC_R_SQUARED 0.0452, HEPG2TOX_HILL_SLOPE 0.416, HEPG2TOX_R_SQUARED 0.805, PBLUC_HILL_SLOPE 0.654, PBLUC_R_SQUARED 0.684, read-out: LUCIFERASE INFECTION ASSAY - IC50) is 0.043 µM.
On to `Cn1ccc2cc(-c3cnc4cnc(-c5ccccc5CO)cn34)ccc21`, for which the IC90 was found to be 0.0193 µM.
With `COc1ccccc1C(CNC(=O)c1ccc(-c2ccccc2Cl)o1)N1CCCC1` (stereo not drawn), the IC90 is 9.73 µM. Further, the IC50 (PBLUC_HILL_SLOPE 3.28, PBLUC_R_SQUARED 0.202, read-out: LUCIFERASE INFECTION ASSAY - IC50) stood at 4.98 µM.
As for `NC(=O)Cc1ccc(C(=O)CSc2ncnc3sc(-c4ccccc4)cc23)s1`, the IC90 was over 10 µM. The IC50 (PBLUC_HILL_SLOPE 2.63, PBLUC_R_SQUARED 0.33, read-out: LUCIFERASE INFECTION ASSAY - IC50) stood at 7.38 µM.
Regarding `CCN(Cc1ccc(Cl)s1)C(=O)c1ccc(NC(=O)c2ccco2)cc1`, the IC90 is over 10 µM. For the same compound, the IC50 (PBLUC_HILL_SLOPE 2.47, PBLUC_R_SQUARED 0.568, read-out: LUCIFERASE INFECTION ASSAY - IC50) came to 5.55 µM.
In the case of `CCCCNc1nc(-c2ccccc2)c(C(=O)OCC)cc1C#N`, the IC90 worked out at 9.48 µM. Where the note is “HEPG2TOX_HILL_SLOPE 4.31, HEPG2TOX_R_SQUARED 0.989, PBLUC_HILL_SLOPE 14.5, PBLUC_R_SQUARED 0.263, read-out: LUCIFERASE INFECTION ASSAY - IC50”, the IC50 came to 8.14 µM.
In the case of `CN(C)c1ccc(-c2cc3c(cn2)nc(NCc2ccccc2)n3C)cc1`, the IC90 was over 10 µM. For the same compound, the IC50 under setting [1] was over 10 µM.
Consider `O=C(NCc1ccco1)C1Cc2c(-c3ccccc3)ccnc2O1` (stereo not drawn), for which the IC90 came out at 3.73 µM. The IC50 (HEPG2TOX_HILL_SLOPE 12.7, HEPG2TOX_R_SQUARED 0.925, PBLUC_HILL_SLOPE 2.58, PBLUC_R_SQUARED 0.503, read-out: LUCIFERASE INFECTION ASSAY - IC50) is 1.59 µM.
In the case of `CC(=O)c1c(C)cc(C)c(CN2C(=O)CN(c3ccccc3)C2=O)c1C`, the IC90 was over 10 µM. Moreover, the IC50 under setting [1] was over 10 µM.
For `CCn1nc(C)c(Br)c1C(=O)Sc1ccccc1Cl`, the IC90 was over 9.17 µM. In addition, under “FFLUC_HILL_SLOPE 17.2, FFLUC_R_SQUARED 0.444, read-out: LUCIFERASE INFECTION ASSAY - IC50”, the IC50 is over 9.17 µM.
As to `Cc1ccc(CSc2ccc([N+](=O)[O-])c3nonc23)cc1`, the IC90 was over 11 µM. Moreover, where the note is “HEPG2TOX_HILL_SLOPE 7.3, HEPG2TOX_R_SQUARED 0.39, read-out: LUCIFERASE INFECTION ASSAY - IC50”, the IC50 was over 11 µM.
Take `Cn1c(Sc2sccc2[N+](=O)[O-])nnc1C(F)(F)F`: the IC90 was over 10.6 µM. In addition, the IC50 under setting [1] is over 10.6 µM.
As for `O=C(Nn1cnc2sc3c(c2c1=O)CCCC3)c1cc(Br)ccc1O`, the IC90 is over 10 µM. For the same compound, the IC50 (PBLUC_HILL_SLOPE 11.5, PBLUC_R_SQUARED 0.145, read-out: LUCIFERASE INFECTION ASSAY - IC50) is 9.56 µM.
In the case of `O=C(Nc1ccc(Cl)c(Cl)c1)Nc1ccc(Cl)c(Cl)c1`, the IC90 was found to be 1.35 µM. Besides, the IC50 (HEPG2TOX_HILL_SLOPE 2.86, HEPG2TOX_R_SQUARED 0.877, PBLUC_HILL_SLOPE 1.38, PBLUC_R_SQUARED 0.733, read-out: LUCIFERASE INFECTION ASSAY - IC50) is 0.275 µM.
For `Cc1onc(-c2ccc(Cl)cc2Cl)c1-c1csc(Nc2c(Cl)cccc2Cl)n1`, the IC90 was over 7 µM. The IC50 (PBLUC_HILL_SLOPE 16.2, PBLUC_R_SQUARED 0.0753, read-out: LUCIFERASE INFECTION ASSAY - IC50) came to 6.45 µM.
Consider `Cc1nc(C(=O)NNC(=O)c2c(-c3c(Cl)cccc3Cl)noc2C)cs1`, for which the IC90 amounted to 3.12 µM. In addition, for the setting “HEPG2TOX_HILL_SLOPE 1.49, HEPG2TOX_R_SQUARED 0.872, PBLUC_HILL_SLOPE 12.3, PBLUC_R_SQUARED 0.357, read-out: LUCIFERASE INFECTION ASSAY - IC50”, the IC50 came to 2.61 µM.
In the case of `COc1cc(C(=O)OCc2c(C)cc(C(C)(C)C)cc2C)cc(OC)c1OC`, the IC90 is over 10 µM. For the same compound, under setting [1], the IC50 was over 10 µM.
On to `CNC(=O)CNc1nc(-c2ccccn2)nc2scc(-c3ccccc3)c12`, for which the IC90 amounted to 7.43 µM. The IC50 (PBLUC_HILL_SLOPE 4.47, PBLUC_R_SQUARED 0.505, read-out: LUCIFERASE INFECTION ASSAY - IC50) turned out to be 4.55 µM.
As for `COc1ccc(CC(N)c2csc(NC(=O)Nc3cccc(Cl)c3)n2)cc1` (stereo not drawn), the IC90 was over 8.19 µM. Besides, under setting [1], the IC50 was over 8.19 µM.
Regarding `CC(/N=c1\ccccn1C(=O)Nc1ccc(Cl)c(Cl)c1)c1ccco1` (stereo not drawn), the IC90 was determined as 9.14 µM. Further, the IC50 under setting [1] worked out at 6.62 µM.
In the case of `CCN(CC)c1ncnc2c1oc1nc(CC(C)C)c3c(c12)CCC3`, the IC90 was over 9.75 µM. Moreover, the IC50 under setting [1] is over 9.75 µM.
Regarding `O=C(O)c1cc(N/N=C(\c2ccncc2)c2ccc([N+](=O)[O-])cc2)cc(C(=O)O)c1`, the IC90 was over 10 µM. Under setting [1], the IC50 was over 10 µM.
Turning to `COc1ccc(NS(=O)(=O)c2cc(NC(=O)c3cc(C4CC4)on3)ccc2N2CCCCC2)cc1`, the IC90 was over 10 µM. Besides, under “FFLUC_HILL_SLOPE 8.45, FFLUC_R_SQUARED 0.551, read-out: LUCIFERASE INFECTION ASSAY - IC50”, the IC50 is over 10 µM.
Turning to `COc1ccc(Nc2nc(N)nc(CSc3nc4ccccc4o3)n2)cc1`, the IC90 was determined as 3.53 µM. Further, under “PBLUC_HILL_SLOPE 12.3, PBLUC_R_SQUARED 0.778, read-out: LUCIFERASE INFECTION ASSAY - IC50”, the IC50 was 2.95 µM.
